Laboratory results: PubChem BioAssay (NCI)
“And” between values parts separate entries of the source, which are not always exact repeats. Equal entries are not always repeated.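 1) Cells in 96-well plates. 2) Compound, 48 h, 5 concentrations. 3) Linear interpolation between surrounding doses. 4) Unreached endpoint = highest concentration. GI50 is the concentration that inhibits growth by half. TGI marks complete inhibition of growth.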

Assays:
Test in all cases: NCI anticancer screen, dose series, 48 h
SNB-75 CNS = system: SNB-75 CNS
NCI-H522 lung = system: NCI-H522 lung
SF-295 CNS = system: SF-295 CNS
NCI-H23 lung = system: NCI-H23 lung
SN12C renal = system: SN12C renal
MDA-MB-435 = system: MDA-MB-435
MDA-N = system: MDA-N
KM12 colon = system: KM12 colon
RXF 393 renal = system: RXF 393 renal
SK-OV-3 ovarian = system: SK-OV-3 ovarian
OVCAR-8 ovarian = system: OVCAR-8 ovarian
ACHN renal = system: ACHN renal
HS 578T breast = system: HS 578T breast
SK-MEL-5 melanoma = system: SK-MEL-5 melanoma
786-0 renal = system: 786-0 renal
CAKI-1 renal = system: CAKI-1 renal
RPMI-8226 leukemia = system: RPMI-8226 leukemia
NCI/ADR-RES ovarian = system: NCI/ADR-RES ovarian
SK-MEL-2 melanoma = system: SK-MEL-2 melanoma
SNB-19 CNS = system: SNB-19 CNS
HCC-2998 colon = system: HCC-2998 colon
DU-145 prostate = system: DU-145 prostate
SK-MEL-28 melanoma = system: SK-MEL-28 melanoma
T-47D breast = system: T-47D breast
SR leukemia = system: SR leukemia
HCT-15 colon = system: HCT-15 colon
NCI-H460 lung = system: NCI-H460 lung
MALME-3M melanoma = system: MALME-3M melanoma
SW-620 colon = system: SW-620 colon
UACC-62 melanoma = system: UACC-62 melanoma
SF-539 CNS = system: SF-539 CNS
OVCAR-3 ovarian = system: OVCAR-3 ovarian
K-562 leukemia = system: K-562 leukemia
BT-549 breast = system: BT-549 breast
TK-10 renal = system: TK-10 renal
SF-268 CNS = system: SF-268 CNS
MDA-MB-231 breast = system: MDA-MB-231 breast
OVCAR-4 ovarian = system: OVCAR-4 ovarian
NCI-H226 lung = system: NCI-H226 lung
CCRF-CEM leukemia = system: CCRF-CEM leukemia
PC-3 prostate = system: PC-3 prostate
IGROV1 ovarian = system: IGROV1 ovarian
MOLT-4 leukemia = system: MOLT-4 leukemia
A549 NSCLC = system: A549 NSCLC
HL-60(TB) leukemia = system: HL-60(TB) leukemia
COLO 205 colon = system: COLO 205 colon
HT29 colon = system: HT29 colon
UO-31 renal = system: UO-31 renal
HOP-62 NSCLC = system: HOP-62 NSCLC
EKVX NSCLC = system: EKVX NSCLC
U251 CNS = system: U251 CNS
HCT-116 colon = system: HCT-116 colon
MCF7 breast = system: MCF7 breast
HOP-92 NSCLC = system: HOP-92 NSCLC
A498 renal = system: A498 renal
LOX IMVI melanoma = system: LOX IMVI melanoma
UACC-257 melanoma = system: UACC-257 melanoma
OVCAR-5 ovarian = system: OVCAR-5 ovarian
M14 melanoma = system: M14 melanoma

What does the source list for `CC1=C/C(O)CC(=O)Cc2nc(co2)C(=O)N2CCC=C2C(=O)OC(C(C)C)C(C)/C=C\C(=O)NC/C=C\1` (centres undefined)?
GI50 (SNB-75 CNS): 21.4 µM; TGI (SNB-75 CNS): > 100 µM; GI50 (NCI-H522 lung): 15.2 µM; TGI (NCI-H522 lung): > 65.6 µM and 11.8 µM; GI50 (SF-295 CNS): 22.3 µM; TGI (SF-295 CNS): > 100 µM; GI50 (NCI-H23 lung): 14.2 µM; TGI (NCI-H23 lung): 44.4 µM and 37.7 µM; GI50 (SN12C renal): 25.9 µM; TGI (SN12C renal): > 100 µM and 29.2 µM; GI50 (MDA-MB-435): 20.3 µM; TGI (MDA-MB-435): > 94.2 µM and 80.4 µM; TGI (MDA-N): 67.9 µM; GI50 (KM12 colon): 15.1 µM; TGI (KM12 colon): 30.3 µM and 25.3 µM; GI50 (RXF 393 renal): 27.8 µM; TGI (RXF 393 renal): > 100 µM; TGI (SK-OV-3 ovarian): > 100 µM; GI50 (OVCAR-8 ovarian): 24.8 µM; TGI (OVCAR-8 ovarian): > 100 µM and 35 µM; GI50 (ACHN renal): 31.8 µM; TGI (ACHN renal): > 100 µM and 29.7 µM; GI50 (HS 578T breast): > 75.8 µM; TGI (HS 578T breast): > 100 µM and 59.4 µM; GI50 (SK-MEL-5 melanoma): 10.3 µM; TGI (SK-MEL-5 melanoma): 29.3 µM and > 100 µM; GI50 (786-0 renal): 26.2 µM; TGI (786-0 renal): 90.1 µM and 60.8 µM; GI50 (CAKI-1 renal): 44.4 µM; TGI (CAKI-1 renal): > 84.1 µM and 70.1 µM; GI50 (RPMI-8226 leukemia): 7.98 µM; TGI (RPMI-8226 leukemia): > 100 µM and 43.4 µM; GI50 (NCI/ADR-RES ovarian): > 100 µM; TGI (NCI/ADR-RES ovarian): > 100 µM; GI50 (SK-MEL-2 melanoma): 10.1 µM; TGI (SK-MEL-2 melanoma): > 100 µM; GI50 (SNB-19 CNS): 18.1 µM; TGI (SNB-19 CNS): 40.3 µM and > 100 µM; GI50 (HCC-2998 colon): 16.2 µM; TGI (HCC-2998 colon): 31.6 µM and 34.5 µM; GI50 (DU-145 prostate): 18.5 µM; TGI (DU-145 prostate): 45.2 µM and > 100 µM; TGI (SK-MEL-28 melanoma): 44.6 µM and 46.3 µM; GI50 (T-47D breast): 8.3 µM; TGI (T-47D breast): > 48.5 µM and 36.8 µM; GI50 (SR leukemia): > 100 µM; TGI (SR leukemia): > 100 µM and 44.6 µM; GI50 (HCT-15 colon): 28.8 µM; TGI (HCT-15 colon): > 89.5 µM and 46.6 µM; GI50 (NCI-H460 lung): 17.8 µM; TGI (NCI-H460 lung): 58 µM and > 100 µM; GI50 (MALME-3M melanoma): 23.1 µM; TGI (MALME-3M melanoma): > 65.9 µM and 25.2 µM; GI50 (SW-620 colon): 10.5 µM; TGI (SW-620 colon): 35 µM and 37.7 µM; GI50 (UACC-62 melanoma): 20.1 µM; TGI (UACC-62 melanoma): > 57.6 µM and 32.3 µM; GI50 (SF-539 CNS): 10.9 µM; TGI (SF-539 CNS): 46.3 µM and > 100 µM; GI50 (OVCAR-3 ovarian): 13.6 µM; TGI (OVCAR-3 ovarian): 37.6 µM and 93.6 µM; GI50 (K-562 leukemia): > 59.5 µM; TGI (K-562 leukemia): > 100 µM; TGI (BT-549 breast): > 47.9 µM and 51.6 µM; GI50 (TK-10 renal): > 100 µM; TGI (TK-10 renal): > 100 µM and 96.1 µM; GI50 (SF-268 CNS): 20.9 µM; TGI (SF-268 CNS): 54.4 µM and 43.4 µM; GI50 (MDA-MB-231 breast): 27.1 µM; TGI (MDA-MB-231 breast): > 71.4 µM and 61.4 µM; GI50 (OVCAR-4 ovarian): 16.1 µM; TGI (OVCAR-4 ovarian): > 100 µM; GI50 (NCI-H226 lung): > 46.3 µM; TGI (NCI-H226 lung): > 100 µM; GI50 (CCRF-CEM leukemia): 7.35 µM; TGI (CCRF-CEM leukemia): > 100 µM and 81.9 µM; GI50 (PC-3 prostate): 65.4 µM; TGI (PC-3 prostate): > 100 µM; GI50 (IGROV1 ovarian): 18.6 µM; TGI (IGROV1 ovarian): 48.2 µM and 36.6 µM; GI50 (MOLT-4 leukemia): 8.54 µM; TGI (MOLT-4 leukemia): > 32.6 µM and 53.5 µM; GI50 (A549 NSCLC): 25.1 µM; TGI (A549 NSCLC): > 100 µM; GI50 (HL-60(TB) leukemia): 14.5 µM; TGI (HL-60(TB) leukemia): > 100 µM; GI50 (COLO 205 colon): 3.09 µM; TGI (COLO 205 colon): 15 µM and 38.9 µM; GI50 (HT29 colon): 13.2 µM; TGI (HT29 colon): 30.7 µM and 31.8 µM; GI50 (UO-31 renal): 25.7 µM; TGI (UO-31 renal): 91.7 µM; GI50 (HOP-62 NSCLC): 19.1 µM; TGI (HOP-62 NSCLC): > 100 µM; GI50 (EKVX NSCLC): 36.4 µM; TGI (EKVX NSCLC): > 100 µM and 53.3 µM; GI50 (U251 CNS): 24.8 µM; TGI (U251 CNS): > 100 µM; GI50 (HCT-116 colon): 3.63 µM; TGI (HCT-116 colon): 14.8 µM and 28.1 µM; GI50 (MCF7 breast): 5.89 µM; TGI (MCF7 breast): 25.1 µM and 41.2 µM; GI50 (HOP-92 NSCLC): 18 µM; TGI (HOP-92 NSCLC): > 86.2 µM; GI50 (A498 renal): 44.9 µM; TGI (A498 renal): > 84.1 µM and 76.3 µM; GI50 (LOX IMVI melanoma): 12.9 µM; TGI (LOX IMVI melanoma): 34.7 µM and 36.1 µM; GI50 (UACC-257 melanoma): 12.6 µM; TGI (UACC-257 melanoma): 35.5 µM and > 100 µM; GI50 (OVCAR-5 ovarian): 31.6 µM; TGI (OVCAR-5 ovarian): 71.8 µM and 75.6 µM; GI50 (M14 melanoma): 23 µM; TGI (M14 melanoma): > 100 µM and 42.3 µM
